# Columns and labels:
# [1] = tested on: blepharospasm caused by reserpine; experiment: Antagonism to reserpine (blepharospasm); type: in vivo; set-up: key: The inhibition of blepharospasm is marked from 0 to +++; ±: The inhibition of blepharospasm is marked from 0 to +++; The inhibition of blepharospasm is marked from 0 to +++; The inhibition of blepharospasm is marked from 0 to +++; conditions: male Swiss mice, before reserpine 5 mg/kg IP
# Experimental: (Chen G., and Bohner B., (1961) J. pharmacol. Exptl. Therap. 131, 179).
# Reserpine administered to mice in a dosage of 5 mg/kg intraperitoneally produces in the first few hours a more or less complete closure of the eyelids in most of the animals. The administration of certain products inhibits the blepharospasm caused by reserpine.
# Male Swiss mice are distributed into batches of 10 mice and each experiment involves at least 3 batches:
# a control batch that receives only the solvent and reserpine
# a batch treated with a reference product: we selected Imipramine
# a treated batch receiving the product being tested.
# The experimental products are administered intraperitoneally either 30 minutes or 2 hours before the intraperitoneal injection of reserpine at a dosage of 5 mg/kg, in order to study their activity as a function of time.
# The degree of ptosis for each eye and each animal is observed every 30 minutes for 4 to 5 hours, using RUBIN's score method. The activity of the product is determined by comparison with the result obtained with the treated control batch. The inhibition of blepharospasm is marked from 0 to +++.
# [2] = tested on: attack caused by pentetrazol; experiment: Anti-convulsant action: attack caused by pentetrazol; type: in vivo; conditions: mice, 30 min before pentetrazol 125 mg/kg IP
# Experimental: A convulsive attack is caused by pentetrazol which, when injected into mice intraperitoneally at a dosage of 125 mg/kg, produces 100% mortality in 5 to 7 minutes.
# Mice, each weighing about 20 g, are given the product being studied intraperitoneally, thirty minutes before the administration of pentetrazol.
# [3] = tested on: epileptic attack by electric shock; experiment: Anti-convulsant action: electric shock; type: in vivo; conditions: Rattus norvegicus, 0.5 h, male rats, 30 min before 30 volts for 0.5 second, read-out: Electric shock: percentage protection (P); for responders at 200 mg/kg: 200 mg/kg IP; for responders at 100 mg/kg: 100 mg/kg IP
# Experimental: The application of an electric current of 30 volts for 0.5 second to the cerebral hemispheres produces an epileptic attack.
# Male rats each weighing 180 to 200 g receive intraperitoneally the solvent or the product being investigated. Thirty minutes later the animals are subjected to electric shocks. It is noted whether the attack is complete or incomplete, and the percentage protection (P) conferred by the product administered is determined.
# [4] = tested on: narcosis produced by hexobarbital; experiment: Modification of narcosis produced by hexobarbital; type: in vivo; conditions: Mus musculus, 0.5 h, mice, half an hour before hexobarbital 70 mg/kg, read-out: Narcosis potentialisation T (percentage increase in sleeping time induced by hexobarbital); for change in vivo at 200 mg/kg: 200 mg/kg IP; for change in vivo at 100 mg/kg: 100 mg/kg IP
# Experimental: Mice, each weighing about 20 g, received the product under investigation by the intraperitoneal route. Half an hour later sodium hexobarbital was injected by the same route at a dosage of 70 mg/kg.
# The animals were placed on a hot plate kept at a constant temperature of 27° C. It is considered that sleep is established when a mouse, placed in the dorsal decubitus, is incapable of turning over and standing on its paws.
# The narcosis potentialisation is evaluated by the percentage increase in sleeping time induced by hexobarbital (T).
# [5] = Toxicity: LD50 in mice, intraperitoneal route (Log-Probits method of Miller and Tainter); conditions: mouse, in vivo, IP
# Experimental: The LD50 of the products was measured in mice by the intraperitoneal route in accordance with the "Log-Probits" method of Miller and Tainter (Proc. Soc. Exptl. Biol. Med. 1944; 57, 261-264).
# central nervous system = experiment: Activity on the central nervous system (overall conclusion of the pharmacological tests); type: in vivo; conditions: conclusion in words
# Description: This was investigated by observing the behaviour of animals, by studying the modifications in narcosis produced by hexobarbital and studying the anti-convulsant power.
# [6] = Remarks on the hydrochloride (Table I); type: physicochemical; conditions: hydrochloride column of Table I
# [7] = Mus musculus, 0.5 h, 200 mg/kg IP, read-out: Pentrazole: percentage protection (P)
smiles,measurement,setting,value
CC(CN1CCN(C)CC1)C(O)C=Cc1ccc2c(c1)OCO2 (centres unmarked) [compound 1202],Inhibition of blepharospasm caused by reserpine,[1]; 25 mg/kg IP,0
same,responders at 25 mg/kg,"[2]; Mus musculus, 0.5 h, 25 mg/kg IP, read-out: Pentrazole: percentage protection (P)",10%
same,Pentrazole: time of death as multiple of that (t) of the control group,[2]; 25 mg/kg IP,2 t ×
same,responders at 25 mg/kg,[3]; 25 mg/kg IP,10%
same,change in vivo at 25 mg/kg,[4]; 25 mg/kg IP,5%
same,LD50,[5],250 mg/kg
CC(CN1CCN(C)CC1)C(=O)C=Cc1ccc2c(c1)OCO2 (centres unmarked) [compound 1201],Inhibition of blepharospasm caused by reserpine,[1]; 7.5 mg/kg IP,±
same,responders at 7.5 mg/kg,"[2]; Mus musculus, 0.5 h, 7.5 mg/kg IP, read-out: Pentrazole: percentage protection (P)",0%
same,Pentrazole: time of death as multiple of that (t) of the control group,[2]; 7.5 mg/kg IP,2 t ×
same,responders at 7.5 mg/kg,[3]; 7.5 mg/kg IP,10%
same,change in vivo at 7.5 mg/kg,[4]; 7.5 mg/kg IP,17%
same,LD50,[5],75 mg/kg
CC(C(=O)C=Cc1ccc2c(c1)OCO2)N1CCOCC1 (centres unmarked) [compound 1321],Inhibition of blepharospasm caused by reserpine,[1]; 85 mg/kg IP,0
same,responders at 85 mg/kg,"[2]; Mus musculus, 0.5 h, 85 mg/kg IP, read-out: Pentrazole: percentage protection (P)",20%
same,responders at 85 mg/kg,[3]; 85 mg/kg IP,50%
same,change in vivo at 85 mg/kg,[4]; 85 mg/kg IP,227%
same,LD50,[5],850 mg/kg
CC(C)=CCCC(=O)C=Cc1ccc2c(c1)OCO2 [compound 998],Inhibition of blepharospasm caused by reserpine,[1]; 200 mg/kg IP,0
same,responders at 200 mg/kg,[2]; [7],0%
same,responders at 200 mg/kg,[3],30%
same,change in vivo at 200 mg/kg,[4],490%
same,LD50,[5],2000 mg/kg
O=C(C=Cc1ccc2c(c1)OCO2)CN1CCOCC1 [compound 996],Inhibition of blepharospasm caused by reserpine,[1]; 75 mg/kg IP,+
same,responders at 75 mg/kg,"[2]; Mus musculus, 0.5 h, 75 mg/kg IP, read-out: Pentrazole: percentage protection (P)",0%
same,responders at 75 mg/kg,[3]; 75 mg/kg IP,50%
same,change in vivo at 75 mg/kg,[4]; 75 mg/kg IP,106%
same,LD50,[5],750 mg/kg
same,Usefulness as anti-depressants,central nervous system,particularly useful as anti-depressants
OC(C=Cc1ccc2c(c1)OCO2)C1CCCCC1 (centres unmarked) [compound 1037],responders at 100 mg/kg,[3],0%
same,change in vivo at 100 mg/kg,[4],225%
same,LD50,[5],1000 mg/kg
CC(C)=CCCC(O)C=Cc1ccc2c(c1)OCO2 (centres unmarked) [compound 999],Inhibition of blepharospasm caused by reserpine,[1]; 50 mg/kg IP,0
same,responders at 100 mg/kg,"[2]; Mus musculus, 0.5 h, 100 mg/kg IP, read-out: Pentrazole: percentage protection (P)",0%
same,Pentrazole: time of death as multiple of that (t) of the control group,[2]; 100 mg/kg IP,5 t ×
same,responders at 100 mg/kg,[3],90%
same,change in vivo at 100 mg/kg,[4],201%
same,LD50,[5],1000 mg/kg
CC(C(O)C=Cc1ccc2c(c1)OCO2)N1CCOCC1 (centres unmarked) [compound 1340],responders at 40 mg/kg,"[2]; Mus musculus, 0.5 h, 40 mg/kg IP, read-out: Pentrazole: percentage protection (P)",10%
same,responders at 40 mg/kg,[3]; 40 mg/kg IP,10%
same,LD50,[5],400 mg/kg
OC(C=Cc1ccc2c(c1)OCO2)CCCN1CCCCC1 (centres unmarked) [AB 754],Hygroscopicity of hydrochloride,[6],hygroscopic
OC(C=Cc1ccc2c(c1)OCO2)CN1CCOCC1 (centres unmarked) [compound 997],Inhibition of blepharospasm caused by reserpine,[1]; 50 mg/kg IP,+++
same,responders at 50 mg/kg,"[2]; Mus musculus, 0.5 h, 50 mg/kg IP, read-out: Pentrazole: percentage protection (P)",0%
same,Pentrazole: time of death as multiple of that (t) of the control group,[2]; 50 mg/kg IP,2 t ×
same,responders at 50 mg/kg,[3]; 50 mg/kg IP,60%
same,change in vivo at 50 mg/kg,[4]; 50 mg/kg IP,0%
same,LD50,[5],500 mg/kg
same,Usefulness as anti-depressants,central nervous system,particularly useful as anti-depressants
CC(CN1CCOCC1)C(O)C=Cc1ccc2c(c1)OCO2 (centres unmarked) [compound 1156],Inhibition of blepharospasm caused by reserpine,[1]; 60 mg/kg IP,0
same,responders at 60 mg/kg,"[2]; Mus musculus, 0.5 h, 60 mg/kg IP, read-out: Pentrazole: percentage protection (P)",10%
same,Pentrazole: time of death as multiple of that (t) of the control group,[2]; 60 mg/kg IP,1.6 t ×
same,responders at 60 mg/kg,[3]; 60 mg/kg IP,50%
same,change in vivo at 60 mg/kg,[4]; 60 mg/kg IP,79%
same,LD50,[5],600 mg/kg
CC(C)=CC(=O)C=Cc1ccc2c(c1)OCO2 [compound 1003],Inhibition of blepharospasm caused by reserpine,[1]; 200 mg/kg IP,0
same,responders at 200 mg/kg,[2]; [7],0%
same,Pentrazole: time of death as multiple of that (t) of the control group,[2]; 200 mg/kg IP,15 t ×
same,responders at 200 mg/kg,[3],0%
same,change in vivo at 200 mg/kg,[4],223%
same,LD50,[5],2000 mg/kg
O=C(C=Cc1ccc2c(c1)OCO2)C1CCCCC1 [compound 1036],responders at 200 mg/kg,[2]; [7],10%
same,Pentrazole: time of death as multiple of that (t) of the control group,[2]; 200 mg/kg IP,2.6 t ×
same,responders at 200 mg/kg,[3],0%
same,change in vivo at 200 mg/kg,[4],135%
same,LD50,[5],2000 mg/kg

# Reference: patent US4209517A, “α-Ethylenic alcohols and ketones, their preparation, and their use as medicaments” (Unicler, priority 1978, dated 1980)
